This passage reports IC50 results from patent US12030878B2 (BRISTOL-MYERS SQUIBB COMPANY, priority 2017, dated 2024).

Type in all cases: cell-based
Test [1] deals with T1, human TLR7 (Homo sapiens, UniProt Q9NYK1).
T1 construct: host or cells: HEK-Blue cells
T1 sequence (Q9NYK1 27-1049): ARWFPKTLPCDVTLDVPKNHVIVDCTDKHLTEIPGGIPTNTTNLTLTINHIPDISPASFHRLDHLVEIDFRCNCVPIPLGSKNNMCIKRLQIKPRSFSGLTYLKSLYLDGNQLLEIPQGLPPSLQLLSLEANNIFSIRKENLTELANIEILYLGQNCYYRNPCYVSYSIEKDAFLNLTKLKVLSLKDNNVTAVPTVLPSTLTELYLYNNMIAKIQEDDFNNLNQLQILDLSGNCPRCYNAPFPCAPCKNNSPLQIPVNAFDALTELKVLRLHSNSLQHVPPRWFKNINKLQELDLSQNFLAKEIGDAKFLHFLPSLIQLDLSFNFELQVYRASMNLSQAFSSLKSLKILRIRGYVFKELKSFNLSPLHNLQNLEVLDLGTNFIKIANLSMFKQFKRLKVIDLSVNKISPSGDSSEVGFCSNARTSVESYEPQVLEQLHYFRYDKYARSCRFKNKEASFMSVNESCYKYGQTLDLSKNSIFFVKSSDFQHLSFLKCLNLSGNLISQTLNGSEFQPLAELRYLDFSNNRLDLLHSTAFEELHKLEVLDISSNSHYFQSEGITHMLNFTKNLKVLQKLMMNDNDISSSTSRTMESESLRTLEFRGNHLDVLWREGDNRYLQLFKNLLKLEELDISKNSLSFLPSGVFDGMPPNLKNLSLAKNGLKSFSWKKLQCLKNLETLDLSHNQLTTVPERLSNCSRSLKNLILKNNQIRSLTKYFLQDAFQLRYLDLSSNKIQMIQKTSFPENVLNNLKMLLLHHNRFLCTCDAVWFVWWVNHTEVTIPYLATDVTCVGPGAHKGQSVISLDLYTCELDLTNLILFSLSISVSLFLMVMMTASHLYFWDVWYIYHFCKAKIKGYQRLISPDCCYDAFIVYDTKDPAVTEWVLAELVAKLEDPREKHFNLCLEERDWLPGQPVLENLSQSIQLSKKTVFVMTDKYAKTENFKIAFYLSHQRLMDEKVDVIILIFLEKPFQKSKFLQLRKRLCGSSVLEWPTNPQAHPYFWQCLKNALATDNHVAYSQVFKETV
Kind of test: TLR7 inhibition reporter assay (HEK-Blue SEAP). Particulars: HEK-Blue cells overexpressing human TLR7, stimulated with gardiquimod 7.5 μM, 22 hour incubation. Put shortly: (§1)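 Test compounds, final 0.05 nM–50 μM, pre-treat HEK-Blue human TLR7, TLR8 or TLR9 reporter cells before agonist addition (TLR8 R848 15.9 μM; TLR7 gardiquimod 7.5 μM; TLR9 ODN2006 5 nM). Incubation runs 22 h, 37 °C. SEAP detection gives percent inhibition against DMSO and reference-inhibitor controls.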
A general note: In a reporter assay the amount or activity of a reporter protein is the signal.

Test [2] concerns the target T2, human TLR9 (Homo sapiens, UniProt Q9NR96).
T2 construct: host or cells: HEK-Blue cells
T2 sequence (Q9NR96 26-1032): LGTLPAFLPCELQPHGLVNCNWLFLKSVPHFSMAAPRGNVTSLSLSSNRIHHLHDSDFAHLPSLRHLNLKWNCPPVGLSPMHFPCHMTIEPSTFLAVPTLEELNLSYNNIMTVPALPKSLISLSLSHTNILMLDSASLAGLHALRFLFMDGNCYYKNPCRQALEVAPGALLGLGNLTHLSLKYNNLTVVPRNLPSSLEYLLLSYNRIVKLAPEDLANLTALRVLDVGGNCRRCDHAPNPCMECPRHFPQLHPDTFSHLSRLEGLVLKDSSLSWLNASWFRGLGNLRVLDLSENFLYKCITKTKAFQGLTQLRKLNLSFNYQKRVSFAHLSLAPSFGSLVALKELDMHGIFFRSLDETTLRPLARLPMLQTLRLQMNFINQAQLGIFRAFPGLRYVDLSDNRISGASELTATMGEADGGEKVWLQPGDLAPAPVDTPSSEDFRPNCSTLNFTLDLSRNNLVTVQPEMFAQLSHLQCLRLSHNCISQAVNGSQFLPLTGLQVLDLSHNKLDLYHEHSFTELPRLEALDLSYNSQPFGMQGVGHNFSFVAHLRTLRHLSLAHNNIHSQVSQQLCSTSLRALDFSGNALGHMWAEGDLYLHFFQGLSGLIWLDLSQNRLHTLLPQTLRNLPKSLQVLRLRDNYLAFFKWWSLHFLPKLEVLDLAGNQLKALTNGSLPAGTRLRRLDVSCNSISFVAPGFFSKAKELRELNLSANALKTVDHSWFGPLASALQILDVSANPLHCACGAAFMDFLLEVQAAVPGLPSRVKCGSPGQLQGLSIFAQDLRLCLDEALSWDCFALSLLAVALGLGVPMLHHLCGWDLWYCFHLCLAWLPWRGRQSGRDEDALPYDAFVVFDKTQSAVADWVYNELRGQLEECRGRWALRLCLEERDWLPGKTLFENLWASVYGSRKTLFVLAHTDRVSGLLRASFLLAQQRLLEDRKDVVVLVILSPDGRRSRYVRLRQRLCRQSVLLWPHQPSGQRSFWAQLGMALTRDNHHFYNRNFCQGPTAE
Kind of test: TLR9 inhibition reporter assay (HEK-Blue SEAP). To be noted: HEK-Blue cells overexpressing human TLR9, stimulated with ODN2006 5 nM, 22 hour incubation. Put shortly:
as §1

Test [3] has as its target T3, human TLR8 (Homo sapiens, UniProt Q9NR97).
T3 construct: host or cells: HEK-Blue cells
T3 sequence (Q9NR97 27-1041): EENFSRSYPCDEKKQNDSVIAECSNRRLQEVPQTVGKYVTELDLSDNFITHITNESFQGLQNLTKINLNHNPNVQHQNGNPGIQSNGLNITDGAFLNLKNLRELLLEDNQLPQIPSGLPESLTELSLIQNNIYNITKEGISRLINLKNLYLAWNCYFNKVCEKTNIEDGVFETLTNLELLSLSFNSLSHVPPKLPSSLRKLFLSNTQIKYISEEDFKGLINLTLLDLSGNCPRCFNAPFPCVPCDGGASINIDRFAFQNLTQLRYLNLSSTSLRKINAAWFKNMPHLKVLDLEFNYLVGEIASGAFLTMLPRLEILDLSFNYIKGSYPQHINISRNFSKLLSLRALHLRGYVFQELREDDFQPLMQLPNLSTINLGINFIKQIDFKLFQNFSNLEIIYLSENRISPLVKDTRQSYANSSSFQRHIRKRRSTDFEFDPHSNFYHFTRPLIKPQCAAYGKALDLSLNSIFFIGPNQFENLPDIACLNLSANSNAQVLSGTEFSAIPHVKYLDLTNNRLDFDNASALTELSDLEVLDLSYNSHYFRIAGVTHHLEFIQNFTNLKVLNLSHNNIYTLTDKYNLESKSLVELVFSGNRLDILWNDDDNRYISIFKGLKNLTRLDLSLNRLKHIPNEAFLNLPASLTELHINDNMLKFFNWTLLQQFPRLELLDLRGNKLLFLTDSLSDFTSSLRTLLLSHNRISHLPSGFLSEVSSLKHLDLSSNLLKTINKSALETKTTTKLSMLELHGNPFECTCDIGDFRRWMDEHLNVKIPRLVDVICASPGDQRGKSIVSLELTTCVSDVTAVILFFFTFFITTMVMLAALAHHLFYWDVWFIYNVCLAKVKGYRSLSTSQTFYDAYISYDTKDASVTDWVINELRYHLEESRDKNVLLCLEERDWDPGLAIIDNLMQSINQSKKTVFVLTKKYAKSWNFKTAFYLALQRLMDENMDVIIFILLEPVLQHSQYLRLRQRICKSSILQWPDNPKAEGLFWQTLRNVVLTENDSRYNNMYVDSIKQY
Kind of test: TLR8 inhibition reporter assay (HEK-Blue SEAP). To be noted: HEK-Blue cells overexpressing human TLR8, stimulated with R848 15.9 μM, 22 hour incubation. Put shortly:
as §1

By IC50 is commonly meant the point on the concentration scale where inhibition reaches its midpoint. Low values mean higher potency, high ones lower potency. Consider `Cc1cc(-c2[nH]c3ccc(O[C@H]4CCCN(C5CCOCC5)C4)cc3c2C(C)C)cn(C)c1=O` [Example 40, (S)-5-(3-isopropyl-5-((1-(tetrahydro-2H-pyran-4-yl)piperidin-3-yl)oxy)-1H-indol-2-yl)-1,3-dimethylpyridin-2(1H)-one], for which the IC50 worked out at 15.9 nM in test [1], 5250 nM in test [2] and 10.8 nM in test [3].
In the same order, the values of `Cc1cc(-c2[nH]c3ccc(OCC4CCN(C)CC4)cc3c2C(C)C)cn2ncnc12` [Example 41, 6-(3-isopropyl-5-((1-methylpiperidin-4-yl)methoxy)-1H-indol-2-yl)-8-methyl-[1,2,4]triazolo[1,5-a]pyridine] are 1.2 nM, 3440 nM and 5.7 nM.
In the same order, the values of `Cc1cc(-c2[nH]c3ccc(OCC4CCN(C(C)C)CC4)cc3c2C(C)C)cn2ncnc12` [Example 42, 6-(3-isopropyl-5-((1-isopropylpiperidin-4-yl)methoxy)-1H-indol-2-yl)-8-methyl-[1,2,4]triazolo[1,5-a]pyridine] are 0.2 nM, 350 nM and 0.4 nM.
In the same order, the values of `Cc1cc(-c2[nH]c3ccc(OCC4CCN(C5COC5)CC4)cc3c2C(C)C)cn2ncnc12` [Example 43, 6-(3-isopropyl-5-((1-(oxetan-3-yl)piperidin-4-yl)methoxy)-1H-indol-2-yl)-8-methyl-[1,2,4]triazolo[1,5-a]pyridine] are 0.6 nM, greater than 50000 nM and 1.1 nM.
On to `Cc1cc(-c2[nH]c3ccc(OCC4CCN(C5CCOCC5)CC4)cc3c2C(C)C)cn2ncnc12` [Example 44, 6-(3-isopropyl-5-((1-(tetrahydro-2H-pyran-4-yl)piperidin-4-yl)methoxy)-1H-indol-2-yl)-8-methyl-[1,2,4]triazolo[1,5-a]pyridine], for which the IC50 in test [1] came to 0.6 nM; in test [2] it was 1030 nM; in test [3], 1.4 nM.
The like results for `Cc1c(-c2[nH]c3ccc(OC4CCN(C(C)C)CC4)cc3c2C(C)C)cn(C)c(=O)c1Cl` [Example 45] were, in that order, 9.6 nM, 2200 nM and 2.2 nM.
In the same order, the values of `Cc1c(-c2[nH]c3ccc(OC4CCN(C)CC4)cc3c2C(C)C)cn(C)c(=O)c1Cl` [Example 46, 3-chloro-5-(3-isopropyl-5-((1-methylpiperidin-4-yl)oxy)-1H-indol-2-yl)-1,4-dimethylpyridin-2(1H)-one] are 5.6 nM, 3750 nM and 3.4 nM.
In the same order, the values of `Cc1cc(-c2[nH]c3ccc(OC4CCN(C(C)C)CC4)cc3c2C(C)C)cn2ncnc12` [Example 47, 6-(3-isopropyl-5-((1-isopropylpiperidin-4-yl)oxy)-1H-indol-2-yl)-8-methyl-[1,2,4]triazolo[1,5-a]pyridine] are 0.8 nM, 2480 nM and 1 nM.
Turning to `Cc1c(-c2[nH]c3ccc(OC4CCN(C(C)C)CC4)cc3c2C(C)C)cn(C)c(=O)c1C` [Example 48, 5-(3-isopropyl-5-((1-isopropylpiperidin-4-yl)oxy)-1H-indol-2-yl)-1,3,4-trimethylpyridin-2(1H)-one], the IC50 in test [1] is 6.9 nM; in test [2] it was 5040 nM; in test [3] it was 1 nM.
As for `Cc1c(-c2[nH]c3ccc(OCC4CCN(C(C)C)CC4)cc3c2C(C)C)cn(C)c(=O)c1C` [Example 49, 5-(3-isopropyl-5-((1-isopropylpiperidin-4-yl)methoxy)-1H-indol-2-yl)-1,3,4-trimethylpyridin-2(1H)-one], the results for the IC50 in test [1], in test [2] and in test [3] were 9.2 nM, 4120 nM and 1.8 nM, respectively.
In the same order, the values of `Cc1c(-c2[nH]c3ccc(OC4CCN(C5COC5)CC4)cc3c2C(C)C)cn(C)c(=O)c1C` [Example 50, 5-(3-isopropyl-5-((1-(oxetan-3-yl)piperidin-4-yl)oxy)-1H-indol-2-yl)-1,3,4-trimethylpyridin-2(1H)-one] are 123 nM, greater than 50000 nM and 21.3 nM.
Regarding `Cc1c(-c2[nH]c3ccc(OCC4CCN(C5COC5)CC4)cc3c2C(C)C)cn(C)c(=O)c1C` [Example 51, 5-(3-isopropyl-5-((1-(oxetan-3-yl)piperidin-4-yl)methoxy)-1H-indol-2-yl)-1,3,4-trimethylpyridin-2(1H)-one], the IC50 was 19.3 nM in test [1], greater than 50000 nM in test [2] and 2.6 nM in test [3].
For the compound `Cc1c(-c2[nH]c3ccc(OCC4CCN(C5COC5)CC4)cc3c2C(C)C)cn2cnnc2c1C` [Example 52, 6-(3-isopropyl-5-((1-(oxetan-3-yl)piperidin-4-yl)methoxy)-1H-indol-2-yl)-7,8-dimethyl-[1,2,4]triazolo[4,3-a]pyridine], the IC50 in test [1] worked out at 6.1 nM; in test [2], 7810 nM; in test [3] it was 5.8 nM.
